Assay results: patent US6613317B1, “Volatile attractants for diabrotica species” (priority 1988, dated 2003)
Marks after values point to notes of the source that are not given here.

Legend:
[1] = system: northern corn rootworm (NCR); test: Sticky trap attraction in corn, phenylethanol analogues (Example 6); assay type: in vivo, Diabrotica barberi; details: for Mean number of NCR per trap (± standard deviation) / Mean number (control subtracted) of NCR per trap: four replicates; for Mean number of NCR per trap (± standard deviation): 24 hour
Description: (§1) Test chemicals (purchased from Aldrich Chemical Co.; Milwaukee, Wis.) were applied by capillary micropipettes to cotton dental wicks that were attached to tops of 1.0 liter cylindrical paper cartons covered with TangleTrap™, Grand Rapids, Mich. The trapping techniques used were as previously described in Example 1. Unless otherwise indicated, all treatments were made at a dosage of 100 mg or 100 μL of attractant per trap. Control traps had untreated wicks. Four replicates of treated and untreated traps were positioned randomly 10 meters apart on top of 1 m high posts along the edges of 25-50 ha. fields of hybrid corn (Zea mays), infested with adult NCR, SCR, and WCR beetles. Several experiments detailed in the Tables were made in a 0.4 ha plot of sweet corn (Illini X-tra Sweet).
(§2) Attraction of Diabrotica species adults of the sticky traps was measured by the mean number of beetles caught after 1 day (ca. 24 hours) exposure. The significance of the treatments was determined by analysis of variance and the individual means were separated by Duncan's multiple range test (Statistical Package for the Social Sciences, Nie, et al., 2nd. ed. McGraw-Hill, New York (1975). The data was logarithmically transformed for statistical analysis. Means and standard deviations are presented for the untransformed data. Significance levels were set at P=0.05 for all statistical analyses.

[2] = system: western corn rootworm (WCR); test: as above; assay type: in vivo, Diabrotica virgifera virgifera; details: 100 mg per trap, four replicates, 24 hour; for Mean number of WCR per trap (± standard deviation), column WCW: Table 17
Description: as §1, §2

[3] = system: western corn rootworm (WCR) adults; test: Sticky trap attraction in corn, estragole analogues (Example 3); assay type: in vivo, Diabrotica virgifera virgifera; details: 100 mg per trap, n = 4
Description: as §1, with “chemicals” for “chemicals (purchased from Aldrich Chemical Co.; Milwaukee, Wis.)”, “Cinnamyl alcohol, 4-methoxycinnamaldehyde, cinnamyl acetate, and 4-(4′methoxyphenyl)-3-butene-2-one which are solids at ambient temperature were prepared as standard w/v solutions in acetone prior to dosing the cotton wicks. All” for “Unless otherwise indicated, all”
as §2

[4] = system: southern corn rootworm (SCR) adults; test: as above; assay type: in vivo, Diabrotica undecimpunctata howardi; details: 100 mg per trap, n = 4
Description: as §1, with “chemicals” for “chemicals (purchased from Aldrich Chemical Co.; Milwaukee, Wis.)”, “Cinnamyl alcohol, 4-methoxycinnamaldehyde, cinnamyl acetate, and 4-(4′methoxyphenyl)-3-butene-2-one which are solids at ambient temperature were prepared as standard w/v solutions in acetone prior to dosing the cotton wicks. All” for “Unless otherwise indicated, all”
as §2

[5] = system: northern corn rootworm (NCR) adults; test: as above; assay type: in vivo, Diabrotica barberi; details: 100 mg per trap, n = 4
Description: as §1, with “chemicals” for “chemicals (purchased from Aldrich Chemical Co.; Milwaukee, Wis.)”, “Cinnamyl alcohol, 4-methoxycinnamaldehyde, cinnamyl acetate, and 4-(4′methoxyphenyl)-3-butene-2-one which are solids at ambient temperature were prepared as standard w/v solutions in acetone prior to dosing the cotton wicks. All” for “Unless otherwise indicated, all”
as §2

[6] = system: NCR; test: Limit of response rating of squash blossom volatiles on sticky traps (Example 5); assay type: in vivo, Diabrotica barberi; details: 24 hour; four replicate traps; 0.01 mg to 200 mg
Description: (§3) Over 40 individual volatile chemicals have been isolated from Cucurbita maxima blossoms and circa 25 of these have been unequivocally identified (Andersen, J. F., J. Agric. Food Chem., 35:60-62 (1987): Andersen, J. F. and Metcalf, R. L., J. Chem. Ecol., 12:687-699 (1986)). The major odor components were evaluated as potential attractants for adult Diabrotica species using cylindrical sticky traps baited with dental cotton wicks (Metcalf, R. L., and Lampman, R. L., Paper submitted to J. Econ. Entomol., (1988)) containing from 0.01 mg to 200 mg of volatile compound.

[7] = system: SCR; test: as above; assay type: in vivo, Diabrotica undecimpunctata howardi; details: 24 hour; four replicate traps; 0.01 mg to 200 mg
Description: as §3

[8] = system: WCR; test: as above; assay type: in vivo, Diabrotica virgifera virgifera; details: 24 hour; four replicate traps; 0.01 mg to 200 mg
Description: as §3

[9] = day 1 after single 100 mg dosage on cotton wick
[10] = day 2 after single 100 mg dosage on cotton wick
[11] = day 3 after single 100 mg dosage on cotton wick
[12] = day 4 after single 100 mg dosage on cotton wick
[13] = day 5 after single 100 mg dosage on cotton wick
[14] = day 6 after single 100 mg dosage on cotton wick
[15] = day 7 after single 100 mg dosage on cotton wick
[16] = day 8 after single 100 mg dosage on cotton wick
[17] = day 11 after single 100 mg dosage on cotton wick

Q: Which “Mean number of NCR per trap (± standard deviation)” value ([1]; Table 17, 100 mg per trap) does the source give for OCCCc1ccccc1 here?
A: 36.2 ± 12.2c per trap

Q: What about the “Mean number (control subtracted) of NCR per trap” value [1, 9] of the same compound?
A: 76.5 per trap

Q: And the “Mean number (control subtracted) of NCR per trap” value [1, 10]?
A: 115.3 per trap

Q: What about the “Mean number (control subtracted) of NCR per trap” value [1, 11] of the same compound?
A: 38.8 per trap

Q: And the “Mean number (control subtracted) of NCR per trap” value [1, 12]?
A: 25.0 per trap

Q: What about the “Mean number (control subtracted) of NCR per trap” value [1, 13] of the same compound?
A: 41.8 per trap

Q: And the “Mean number (control subtracted) of NCR per trap” value [1, 14]?
A: 10.5 per trap

Q: And the “Mean number (control subtracted) of NCR per trap” value [1, 15]?
A: 10.7 per trap

Q: And the “Mean number (control subtracted) of NCR per trap” value [1, 16]?
A: 29.5 per trap

Q: What about the “Mean number (control subtracted) of NCR per trap” value [1, 17] of the same compound?
A: 4.5 per trap

Q: And the “Mean number of WCR per trap (± standard deviation), column WCW” value [2]?
A: 4.0 ± 2.9a per trap

Q: Which results are given for COc1ccccc1CCO [2-methoxyphenylethanol]?
A: Mean number of NCR per trap (± standard deviation) ([1]; Table 16, 100 mg per trap): 13.5 ± 9.3a per trap; Mean number of WCR per trap (±standard deviation) ([2]; Table 16): 6.0 ± 5.1a per trap

Q: How did the “Mean number of NCR per trap (± standard deviation)” value ([1]; Table 16, 100 mg per trap) turn out when COc1cccc(CCO)c1 [3-methoxyphenylethanol] was run?
A: 7.2 ± 3.4a per trap

Q: What about the “Mean number of WCR per trap (±standard deviation)” value ([2]; Table 16) of the same compound?
A: 3.7 ± 2.1a per trap

Q: With Nc1ccc(CCO)cc1 [4-aminophenylethanol] as the compound, how does the “Mean number of NCR per trap (± standard deviation)” value ([1]; Table 15, 100 mg per trap) read?
A: 10.5 ± 2.1a per trap

Q: And the “Mean number of WCR per trap (±standard deviation)” value ([2]; Table 15)?
A: 8.5 ± 3.4a per trap

Q: What does the source list for OCCc1ccc(Cl)cc1 [4-chlorophenylethanol]?
A: Mean number of NCR per trap (± standard deviation) ([1]; Table 15, 100 mg per trap): 30.0 ± 7.4b per trap; Mean number of WCR per trap (±standard deviation) ([2]; Table 15): 13.7 ± 3.9a per trap

Q: For OCCc1ccc(F)cc1 [4-fluorophenylethanol], which “Mean number of NCR per trap (± standard deviation)” value ([1]; Table 15, 100 mg per trap) is on record?
A: 38.0 ± 6.2b per trap

Q: What about the “Mean number of WCR per trap (±standard deviation)” value ([2]; Table 15) of the same compound?
A: 14.0 ± 12.3a per trap

Q: For COc1ccc(CCO)cc1 [4-methoxyphenylethanol], which “Mean number of NCR per trap (± standard deviation)” value ([1]; Table 15, 100 mg per trap) is on record?
A: 187.7 ± 62.5d* per trap

Q: What about the “Mean number of NCR per trap (± standard deviation)” value ([1]; Table 16, 100 mg per trap) of the same compound?
A: 60.3 ± 26.8b* per trap

Q: And the “Mean number of NCR per trap (± standard deviation)” value ([1]; Table 17, 100 mg per trap)?
A: 56.7 ± 7.5c per trap

Q: And the “lowest level attractive to NCR” value ([1]; Table 18)?
A: ≤ 0.1 mg

Q: And the “Mean number of NCR per trap (± standard deviation)” value ([1]; Table 18, 0.1 mg)?
A: 16.2 ± 1.2b per trap

Q: What about the “Mean number of NCR per trap (± standard deviation)” value ([1]; Table 18, 0.3 mg) of the same compound?
A: 32.7 ± 9.4c per trap

Q: What about the “Mean number of NCR per trap (± standard deviation)” value ([1]; Table 18, 1 mg) of the same compound?
A: 41.0 ± 23.4c per trap

Q: What about the “Mean number of NCR per trap (± standard deviation)” value ([1]; Table 18, 3 mg) of the same compound?
A: 72.0 ± 10.8d per trap

Q: And the “Mean number (control subtracted) of NCR per trap” value [1, 9]?
A: 134.5 per trap

Q: What about the “Mean number (control subtracted) of NCR per trap” value [1, 10] of the same compound?
A: 231.8 per trap

Q: And the “Mean number (control subtracted) of NCR per trap” value [1, 11]?
A: 93.1 per trap

Q: And the “Mean number (control subtracted) of NCR per trap” value [1, 12]?
A: 51.5 per trap

Q: What about the “Mean number (control subtracted) of NCR per trap” value [1, 13] of the same compound?
A: 128.9 per trap

Q: And the “Mean number (control subtracted) of NCR per trap” value [1, 14]?
A: 49.2 per trap

Q: What about the “Mean number (control subtracted) of NCR per trap” value [1, 15] of the same compound?
A: 76.7 per trap

Q: What about the “Mean number (control subtracted) of NCR per trap” value [1, 16] of the same compound?
A: 99.0 per trap

Q: What about the “Mean number (control subtracted) of NCR per trap” value [1, 17] of the same compound?
A: 64.8 per trap

Q: And the “Mean number of WCR per trap (±standard deviation)” value ([2]; Table 15)?
A: 5.7 ± 2.8a per trap

Q: What about the “Mean number of WCR per trap (±standard deviation)” value ([2]; Table 16) of the same compound?
A: 3.5 ± 2.1a per trap

Q: And the “Mean number of WCR per trap (± standard deviation), column WCW” value [2]?
A: 6.0 ± 4.2a per trap

Q: Which results are given for COc1ccc(CCCO)cc1 [4-methoxyphenylpropanol]?
A: Mean number of NCR per trap (± standard deviation) ([1]; Table 17, 100 mg per trap): 15.5 ± 6.2b per trap; Mean number of WCR per trap (± standard deviation), column WCW [2]: 3.2 ± 2.2a per trap

Q: Which results are given for Cc1ccc(CCO)cc1 [4-methylphenylethanol]?
A: Mean number of NCR per trap (± standard deviation) ([1]; Table 15, 100 mg per trap): 89.2 ± 7.8c per trap; Mean number of WCR per trap (±standard deviation) ([2]; Table 15): 12.2 ± 5.6a per trap

Q: For O=[N+]([O-])c1ccc(CCO)cc1 [4-nitrophenylethanol], which “Mean number of NCR per trap (± standard deviation)” value ([1]; Table 15, 100 mg per trap) is on record?
A: 7.7 ± 2.7a per trap

Q: What about the “Mean number of WCR per trap (±standard deviation)” value ([2]; Table 15) of the same compound?
A: 7.9 ± 5.1a per trap

Q: With O=CC=Cc1ccccc1 [XII, cinnamaldehyde] as the compound, how does the “Mean number of WCR adults per sticky trap (±standard deviation) after 24 hours” value ([3]; August 4 second year) read?
A: 32.2 ± 8.5^b per sticky trap

Q: And the “Mean number of WCR per sticky trap after 24 hours” value ([3]; August 5 (Table 10))?
A: 44.5 ± 25.5^d per sticky trap

Q: And the “Mean number of WCR adults per sticky trap (±standard deviation) after 24 hours” value ([3]; August 5 first year)?
A: 4.0 ± 1.8^b per sticky trap

Q: And the “Mean number of WCR (±standard deviation) per sticky trap after 24 hours” value ([3]; August 7 (Table 11))?
A: 61.5 ± 15.6^b per sticky trap

Q: And the “Mean number of WCR adults per sticky trap (±standard deviation) after 24 hours” value ([3]; September 11)?
A: 1.3 ± 1.3^a per sticky trap

Q: And the “Mean number of SCR adults per sticky trap (±standard deviation) after 24 hours” value ([4]; August 4 second year)?
A: 135.5 ± 29.3^d per sticky trap

Q: What about the “Mean number of SCR per sticky trap after 24 hours” value ([4]; August 5 (Table 10)) of the same compound?
A: 67.5 ± 23.1^d per sticky trap

Q: What about the “Mean number of SCR adults per sticky trap (±standard deviation) after 24 hours” value ([4]; August 5 first year) of the same compound?
A: 431.2 ± 120.3^d per sticky trap

Q: What about the “Mean number of SCR (±standard deviation) per sticky trap after 24 hours” value ([4]; August 7 (Table 11)) of the same compound?
A: 63.5 ± 25.7^c per sticky trap

Q: And the “Mean number of SCR adults per sticky trap (±standard deviation) after 24 hours” value ([4]; September 11)?
A: 24.0 ± 10.5^c per sticky trap

Q: What about the “Mean number of NCR per sticky trap after 24 hours” value ([5]; August 5 (Table 10)) of the same compound?
A: 1.2 ± 1.3^a per sticky trap

Q: What about the “Mean number of NCR (±standard deviation) per sticky trap after 24 hours” value ([5]; August 7 (Table 11)) of the same compound?
A: 0.3 ± 0.5^a per sticky trap

Q: And the “Attractant Rating NCR (by limit of response)” value [6]?
A: 0 (200)

Q: And the “Attractant Rating SCR (by limit of response)” value [7]?
A: +4 (1-3)

Q: And the “Attractant Rating WCR (by limit of response)” value [8]?
A: +3 (3-10)

Q: What about the “Mean number of NCR per trap (± standard deviation)” value ([1]; Table 17, 100 mg per trap) of the same compound?
A: 15.5 ± 3.8b per trap

Q: And the “Mean number of WCR per trap (± standard deviation), column WCW” value [2]?
A: 56.0 ± 34.6b per trap
